According to patent publication US7491819B1 (priority 2004, dated 2009):

The compounds below were run against T1, HIV-integrase (Human immunodeficiency virus type 1 group M subtype B, UniProt P12497) (assay: HIV-Integrase Inhibition Activity (SPA bead strand-transfer assay)). Details: Table 1; read-out: Activity (HIV-integrase inhibition, IC50 class).
T1 construct: Recombinant integrase (0.26 ng) was incubated with the beads
Format: biochemical
In short: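 Biotin-labelled substrate DNA (5 pmole) bound to streptavidin SPA beads, preloaded with recombinant integrase (0.26 ng) for 90 min at 37° C, then washed. Inhibitors and 0.1 fmol P33-labelled target DNA added; reaction stopped with 10 mM EDTA. Integration read as scintillation CPM.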

SMILES	IC50 [nM]
CCC1(CC)OCCn2c1nc(C(=O)NCc1ccc(F)cc1-n1cncn1)c(O)c2=O [Example 119, Pyrimido[2,1-c][1,4]oxazine-2-carboxamide, 9,9-diethyl-N-[[4-fluoro-2-(1H-1,2,4-triazol-1-yl)phenyl]methyl]-4,6,7,9-tetrahydro-3-hydroxy-4-oxo-]	2 to 100
CCC1(CC)OCCn2c1nc(C(=O)NCc1ccc(F)cc1C(=O)NC)c(O)c2=O [Example 120, Pyrimido[2,1-c][1,4]oxazine-2-carboxamide, 9,9-diethyl-N-[[4-fluoro-2-[(methylamino)carbonyl]phenyl]methyl]-4,6,7,9-tetrahydro-3-hydroxy-4-oxo-]	2 to 100
CC1(C)OCCn2c1nc(C(=O)NCc1ccc(F)cc1N1CCCCC1=O)c(O)c2=O [Example 121, Pyrimido[2,1-c][1,4]oxazine-2-carboxamide, N-[[4-fluoro-2-(2-oxo-1-piperidinyl)phenyl]methyl]-4,6,7,9-tetrahydro-3-hydroxy-9,9-dimethyl-4-oxo-]	2 to 100
CC1(C)OCCn2c1nc(C(=O)NCc1ccccc1N1CCOC1=O)c(O)c2=O [Example 122, Pyrimido[2,1-c][1,4]oxazine-2-carboxamide, 4,6,7,9-tetrahydro-3-hydroxy-9,9-dimethyl-4-oxo-N-[[2-(2-oxo-3-oxazolidinyl)phenyl]methyl]-]	2 to 100
CC1(C)OCCn2c1nc(C(=O)NCc1ccccc1N1CCC1=O)c(O)c2=O [Example 123, Pyrimido[2,1-c][1, 4]oxazine-2-carboxamide, 4,6,7,9-tetrahydro-3-hydroxy-9,9-dimethyl-4-oxo-N-[[2-(2-oxo-1-azetidinyl)phenyl]methyl]-]	2 to 100
CC1(C)OCCn2c1nc(C(=O)NCc1ccc(F)cc1N1CCCC1=O)c(O)c2=O [Example 124, Pyrimido[2,1-c][1,4]oxazine-2-carboxamide, N-[[4-fluoro-2-(2-oxo-1-pyrrolidinyl)phenyl]methyl]-4,6,7,9-tetrahydro-3-hydroxy-9,9-dimethyl-4-oxo]	2 to 100
CC1(C)OCCn2c1nc(C(=O)NCc1ccc(F)cc1N1CCCCCC1=O)c(O)c2=O [Example 125, Pyrimido[2,1-c][1,4]oxazine-2-carboxamide, N-[[4-fluoro-2-(hexahydro-2-oxo-1H-azepin-1-yl)phenyl]methyl]-4,6,7,9-tetrahydro-3-hydroxy-9,9-dimethyl-4-oxo-]	2 to 100
CC1(C)OCCn2c1nc(C(=O)NCc1ccc(F)cc1N1CCC1=O)c(O)c2=O [Example 126, N-(4-Fluoro-2-(2-oxoazetidin-1-yl)benzyl)-3-hydroxy-9,9-dimethyl-4-oxo-4,6,7,9-tetrahydropyrimido[2,1-c][1,4]oxazine-2-carboxamide]	2 to 100
CC1(C)OCCn2c1nc(C(=O)NCc1ccc(F)cc1N1CCOC1=O)c(O)c2=O [Example 127, N-(4-Fluoro-2-(2-oxooxazolidin-3-yl)benzyl)-3-hydroxy-9,9-dimethyl-4-oxo-4,6,7,9-tetrahydropyrimido[2,1-c][1,4]oxazine-2-carboxamide]	2 to 100
CC1(C)OCCn2c1nc(C(=O)NCc1ccc(F)cc1N1C(=O)CC[C@@H]1CO)c(O)c2=O [Example 128, Pyrimido[2,1-c][1,4]oxazine-2-carboxamide, N-[[4-fluoro-2-[(2R)-2-(hydroxymethyl)-5-oxo-1-pyrrolidinyl]phenyl]methyl]-4,6,7,9-tetrahydro-3-hydroxy-9,9-dimethyl-4-oxo-]	2 to 100
CC(=O)OC[C@H]1CCC(=O)N1c1cc(F)ccc1CNC(=O)c1nc2n(c(=O)c1O)CCOC2(C)C [Example 129, Pyrimido[2,1-c][1,4]oxazine-2-carboxamide, N-[[2-[(2R)-2-[(acetyloxy)methyl]-5-oxo-1-pyrrolidinyl]-4-fluorophenyl]methyl]-4,6,7,9-tetrahydro-3-hydroxy-9,9-dimethyl-4-oxo-]	2 to 100
CC1(C)OCCn2c1nc(C(=O)NCc1ccc(F)cc1N1C(=O)CC[C@H]1CO)c(O)c2=O [Example 130, Pyrimido[2,1-c][1,4]oxazine-2-carboxamide, N-[[4-fluoro-2-[(2S)-2-(hydroxymethyl)-5-oxo-1-pyrrolidinyl]phenyl]methyl]-4,6,7,9-tetrahydro-3-hydroxy-9,9-dimethyl-4-oxo-]	2 to 100
CN(C)C[C@H]1CCC(=O)N1c1cc(F)ccc1CNC(=O)c1nc2n(c(=O)c1O)CCOC2(C)C [Example 131, (R)—N-(2-(2-((Dimethylamino)methyl)-5-oxopyrrolidin-1-yl)-4-fluorobenzyl)-3-hydroxy-9,9-dimethyl-4-oxo-4,6,7,9-tetrahydropyrimido[2,1-c][1,4]oxazine-2-carboxamide]	100 to 1000
CC1(C)OCCn2c1nc(C(=O)NCc1ccc(F)cc1N1C(=O)CC[C@@H]1CN=[N+]=[N-])c(O)c2=O [Example 132, (R)—N-(2-(2-(Azidomethyl)-5-oxopyrrolidin-1-yl)-4-fluorobenzyl)-3-hydroxy-9,9-dimethyl-4-oxo-4,6,7,9-tetrahydropyrimido[2,1-c][1,4]oxazine-2-carboxamide]	2 to 100
CC1(C)OCCn2c1nc(C(=O)NCc1ccc(F)cc1N1C(=O)CC[C@@H]1CN)c(O)c2=O [Example 133, (R)—N-(2-(2-(Aminomethyl)-5-oxopyrrolidin-1-yl)-4-fluorobenzyl)-3-hydroxy-9,9-dimethyl-4-oxo-4,6,7,9-tetrahydropyrimido[2,1-c][1,4]oxazine-2-carboxamide]	100 to 1000
CC1(C)OCCn2c1nc(C(=O)NCc1ccc(F)cc1N)c(O)c2=O [Example 134, Pyrimido[2,1-c][1,4]oxazine-2-carboxamide, N-[(2-amino-4-fluorophenyl)methyl]-4,6,7,9-tetrahydro-3-hydroxy-9,9-dimethyl-4-oxo-]	2 to 100
CC(=O)Nc1cc(F)ccc1CNC(=O)c1nc2n(c(=O)c1O)CCOC2(C)C [Example 135, Pyrimido[2,1-c][1,4]oxazine-2-carboxamide, N-[[2-(acetylamino)-4-fluorophenyl]methyl]-4,6,7,9-tetrahydro-3-hydroxy-9,9-dimethyl-4-oxo-]	2 to 100
CC(=O)N(C)c1cc(F)ccc1CNC(=O)c1nc2n(c(=O)c1O)CCOC2(C)C [Example 136, Pyrimido[2,1-c][1,4]oxazine-2-carboxamide, N-[[2-(acetylmethylamino)-4-fluorophenyl]methyl]-4,6,7,9-tetrahydro-3-hydroxy-9,9-dimethyl-4-oxo-]	2 to 100
CC1(C)OCCn2c1nc(C(=O)NCc1ccccc1N1C(=O)C=CC1=O)c(O)c2=O [Example 137, N-(2-(2,5-Dioxo-2H-pyrrol-1(5H)-yl)benzyl)-3-hydroxy-9,9-dimethyl-4-oxo-4,6,7,9-tetrahydropyrimido[2,1-c][1,4]oxazine-2-carboxamide]	2 to 100
CC1(C)OCCn2c1nc(C(=O)NCc1cccc3ccsc13)c(O)c2=O [Example 138, Pyrimido[2,1-c][1,4]oxazine-2-carboxamide, N-(benzo[b]thien-7-ylmethyl)-4,6,7,9-tetrahydro-3-hydroxy-9,9-dimethyl-4-oxo-]	2 to 100
CC1(C)OCCn2c1nc(C(=O)NCc1cccc3c1S(=O)(=O)C=C3)c(O)c2=O [Example 139, Pyrimido[2,1-c][1,4]oxazine-2-carboxamide, N-[(1,1-dioxidobenzo[b]thien-7-yl)methyl]-4,6,7,9-tetrahydro-3-hydroxy-9,9-dimethyl-4-oxo-]	2 to 100
CC1(C)OCCn2c1nc(C(=O)NCc1cccc3c1S(=O)(=O)CC3)c(O)c2=O [Example 140, Pyrimido[2,1-c][1,4]oxazine-2-carboxamide, N-[(2,3-dihydro-1,1-dioxidobenzo[b]thien-7-yl)methyl]-4,6,7,9-tetrahydro-3-hydroxy-9,9-dimethyl-4-oxo-]	2 to 100
CC1(C)OCCn2c1nc(C(=O)NCc1ccccn1)c(O)c2=O [Example 141, Pyrimido[2,1-c][1,4]oxazine-2-carboxamide, 4,6,7,9-tetrahydro-3-hydroxy-9,9-dimethyl-4-oxo-N-(2-pyridinylmethyl)-]	2 to 100
Cc1cnc(CNC(=O)c2nc3n(c(=O)c2O)CCOC3(C)C)cn1 [Example 142, Pyrimido[2,1-c][1,4]oxazine-2-carboxamide, 4,6,7,9-tetrahydro-3-hydroxy-9,9-dimethyl-N-[(5-methylpyrazinyl)methyl]-4-oxo-]	2 to 100
CSc1ccc(CNC(=O)c2nc3n(c(=O)c2O)CCOC3(C)C)cc1 [Example 143, Pyrimido[2,1-c][1,4]oxazine-2-carboxamide, 4,6,7,9-tetrahydro-3-hydroxy-9,9-dimethyl-N-[[4-(methylthio)phenyl]methyl]-4-oxo-]	2 to 100
Cc1[nH]c2ccc(CNC(=O)c3nc4n(c(=O)c3O)CCOC4(C)C)cc2c1C [Example 144, Pyrimido[2,1-c][1,4]oxazine-2-carboxamide, N-[(2,3-dimethyl-1H-indol-5-yl)methyl]-4,6,7,9-tetrahydro-3-hydroxy-9,9-dimethyl-4-oxo-]	100 to 1000
CC(C)Oc1ccc(CNC(=O)c2nc3n(c(=O)c2O)CCOC3(C)C)cc1 [Example 145, Pyrimido[2,1-c][1,4]oxazine-2-carboxamide, 4,6,7,9-tetrahydro-3-hydroxy-9,9-dimethyl-N-[[4-(1-methylethoxy)phenyl]methyl]-4-oxo-]	> 1000
CC1(C)OCCn2c1nc(C(=O)NCc1cc(F)cc(F)c1)c(O)c2=O [Example 146, Pyrimido[2,1-c][1,4]oxazine-2-carboxamide, N-[(3,5-difluorophenyl)methyl]-4,6,7,9-tetrahydro-3-hydroxy-9,9-dimethyl-4-oxo-]	2 to 100
CC1(C)OCCn2c1nc(C(=O)NCc1ccccc1Br)c(O)c2=O [Example 147, Pyrimido[2,1-c][1,4]oxazine-2-carboxamide, N-[(2-bromophenyl)methyl]-4,6,7,9-tetrahydro-3-hydroxy-9,9-dimethyl-4-oxo-]	2 to 100
CC1(C)OCCn2c1nc(C(=O)NCc1ccccc1-c1cccc3cccnc13)c(O)c2=O [Example 148, Pyrimido[2,1-c][1,4]oxazine-2-carboxamide, 4,6,7,9-tetrahydro-3-hydroxy-9,9-dimethyl-4-oxo-N-[[2-(8-quinolinyl)phenyl]methyl]-]	100 to 1000
